# Target: Casein kinase II subunit alpha (Homo sapiens, UniProt P68400)
# Experiment: Inhibition of human CK2alpha (2 to 391 residues) using [33P]-ATP by scintillation counting based radioactive filter binding assay
# Casein kinase II subunit alpha, sequence (P68400 whole entry, the tested form may be a part): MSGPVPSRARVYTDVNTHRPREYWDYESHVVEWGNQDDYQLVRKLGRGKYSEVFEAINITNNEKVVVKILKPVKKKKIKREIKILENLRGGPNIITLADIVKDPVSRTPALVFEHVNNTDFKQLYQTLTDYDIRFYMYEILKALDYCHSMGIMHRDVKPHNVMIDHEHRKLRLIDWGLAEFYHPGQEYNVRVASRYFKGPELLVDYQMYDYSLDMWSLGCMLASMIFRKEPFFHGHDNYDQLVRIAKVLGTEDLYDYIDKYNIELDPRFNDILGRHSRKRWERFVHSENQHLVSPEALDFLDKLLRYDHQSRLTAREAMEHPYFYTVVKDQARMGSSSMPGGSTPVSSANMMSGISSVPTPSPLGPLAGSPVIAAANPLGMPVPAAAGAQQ
row,IC50 [µM],SMILES
1,> 200,O=C(Nc1n[nH]c2cccc(F)c12)c1ccc2c(c1)CCO2
2,> 200,CCc1nnc(-c2cccc(NC(=O)c3n[nH]c4ccccc34)c2)o1
3,> 200,Cc1cc2cc(NC(=O)c3n[nH]c4ccccc34)ccc2[nH]1
4,> 200,O=C(Nc1ccccc1)c1n[nH]c2ccc([N+](=O)[O-])cc12
